Counter-ions that a name gives are not always drawn. Like-named read-outs stand apart in the source and are kept apart here.
Experiments:
Vero cells = assay: Cytotoxicity assay (CCK) in Vero cells; type: cell-based, African green monkey; details: for TC50 (median toxic concentration): African green monkey, 48 h
Procedure: (§1) Vero cells were purchased from the American Type Culture Collection (ATCC, […], MD, USA), and were cultured in Minimum Essential Medium (MEM) supplemented with 10% fetal bovine serum (FBS) (GIBCO, Grand Island, NY, USA) and antibiotics (100 U/mL penicillin and […] streptomycin) at 37 °C in a 5% CO2 incubator. EV71 strain SHZH98 isolated from the throat swab sample of an HFMD case occurring in 1998 in China was kindly provided by Dr. Qi Jin (Institute of Pathogen Biology, Chinese Academy of Medical Science and Peking Union Medical School, Beijing, China), and JS-52 strain was a kind gift from Dr. Xiangzhong Ye (Beijing Wantai Biological Pharmacy Enterprise Co., Ltd., Beijing, China). The EV71 BrCr and H strains were purchased from the ATCC. All of EV71 strains were passaged in Vero cells.
Cytotoxicity of all target compounds in Vero cells was analyzed by CCK (TransGen Biotech, Beijing, China) assay. In brief, cells in exponential phase (3 × 10^4 cells/well) were seeded into 96-well culture plates and incubated overnight. Then, the medium was removed and different concentrations of all target compounds were applied in duple. After 48 h incubation, the cytotoxicity of all target compounds was determined by CCK assay. The signals were read at 450 nm on Enspire (Perkin Elmer, Waltham, MA, USA). The TC50 was defined as the concentration that inhibits 50% cellular growth in comparison with the controls. It is calculated by the Reed and Muench method.

[1] = system: EV71 H strain (VR-1432, genotype C2); assay: CPE inhibition assay for anti-EV71, H strain; type: cell-based, enterovirus 71 (EV71); details: for IC50: Enterovirus A, read-out: H Strain IC50; for anti-EV71 activity against H strain, in words: compared with BBR
Procedure: (§2) Thus, all newly synthesized BBR analogues were screened for their anti-EV71 potencies in African green monkey kidney (Vero) cells taking BBR as the positive control. EV71 strains used in the present study include different genotype strains, such as H strain (VR-1432, genotype C2), BrCr strain (VR-1775, genotype A), and JS-52 and SHZH98 (genotype C4). The potency against EV71 strains above mentioned of each tested compound was evaluated by the combination of its IC50 and selectivity index (SI) value as the important therapeutic indication.
as §1
(§3) The anti-EV71 activities of all tested compounds were detected by the virus-induced CPE assay. Briefly, cells (3 × 10^4 cells/well) were plated into 96-well culture plates and incubated for 16 h. Then, remove the medium and infected cells with EV71 of 100 × TCID50 (50% tissue culture infective doses) in serum-free medium for 1 h at 37 °C. After that, the unbound viruses were removed and various concentrations of tested compounds were supplemented for incubation of another 72 h. […] TC50 defined as the concentration that leads to the 50% of CPE which determined by the same method in 72 h. In addition, the cells were stained the cells were colored with 0.5% crystal violet in 20% ethanol for 15 min at room temperature and the cells were imaged after rinsed with PBS.

[2] = system: EV71 JS-52 strain (genotype C4); assay: CPE inhibition assay for anti-EV71, JS-52 strain; type: cell-based, enterovirus 71 (EV71); details: Enterovirus A, read-out: JS-52 Strain IC50
Procedure: as §2, §1, §3

[3] = system: EV71 SHZH98 strain (genotype C4); assay: CPE inhibition assay for anti-EV71, SHZH98 strain; type: cell-based, enterovirus 71 (EV71); details: Enterovirus A, read-out: SHZH98 Strain IC50
Procedure: as §2, §1, §3

[4] = system: EV71 BrCr strain (VR-1775, genotype A); assay: CPE inhibition assay for anti-EV71, BrCr strain; type: cell-based, enterovirus 71 (EV71); details: Enterovirus A, read-out: BrCr Strain IC50
Procedure: as §2, §1, §3

[5] = EV71, Vero cells, CPE, calculated on the organic part, n = 3

Work on `COc1ccc2cc3[n+](cc2c1OCC(=O)OCC(C)C)CCc1cc2c(cc1-3)OCO2` (as salt: chloride) [2b, 2,3-Methylenedioxy-9-isobutyloxyformylmethylenoxy-10-methoxy protoberberine chloride] yielded a melting point of 232 to 234 °C.
In the case of `COc1ccc2cc3[n+](cc2c1OCC(=O)C(C)(C)C)CCc1cc2c(cc1-3)OCO2` (as salt: chloride) [2c, 2,3-Methylenedioxy-9-pivalylmethylenoxy-10-methoxy protoberberine chloride], the melting point is reported as 242 to 244 °C.
For `COc1ccc2cc3[n+](cc2c1OCC(=O)c1ccc(C)cc1)CCc1cc2c(cc1-3)OCO2` (as salt: chloride) [2e, 2,3-Methylenedioxy-9-p-tolylformylmethylenoxy-10-methoxy protoberberine chloride], the melting point was 219 to 221 °C.
`COc1cccc(C(=O)COc2c(OC)ccc3cc4[n+](cc23)CCc2cc3c(cc2-4)OCO3)c1` (as salt: chloride) [2f, 2,3-Methylenedioxy-9-m-methoxyphenylformylmethylenoxy-10-methoxy protoberberine chloride] showed a melting point of 214 to 216 °C.
For `COc1ccc2cc3[n+](cc2c1OCC(=O)c1ccc(C(F)(F)F)cc1)CCc1cc2c(cc1-3)OCO2` (as salt: chloride) [2g, 2,3-Methylenedioxy-9-p-trifloromethylphenylformylmethylenoxy-10-methoxy protoberberine chloride], the melting point was 238 to 240 °C.
In the case of `COc1ccc2cc3[n+](cc2c1OC(=O)OCc1ccccc1)CCc1cc2c(cc1-3)OCO2` (as salt: chloride) [2h, 2,3-Methylenedioxy-9-benzyloxyformyloxy-10-methoxy protoberberine chloride], the melting point is reported as 195 to 197 °C.
`CCOC(=O)Oc1c(OC)ccc2cc3[n+](cc12)CCc1cc2c(cc1-3)OCO2` (as salt: chloride) [2i, 2,3-Methylenedioxy-9-ethyloxyformyloxy-10-methoxy protoberberine chloride] showed a melting point of 218 to 220 °C.
In the case of `CCOC(=O)COc1c(OC)ccc2cc3[n+](cc12)CCc1cc(OC)c(OC)cc1-3` (as salt: chloride) [4a, 2,3,10-Trimethoxy-9-ethyloxyformylmethylenoxy protoberberine chloride], the melting point is reported as 204 to 206 °C.
With `COc1cc2c(cc1OC)-c1cc3ccc(OC)c(OCC(=O)C(C)(C)C)c3c[n+]1CC2` (as salt: chloride) [4b, 2,3,10-Trimethoxy-9-pivalylmethylenoxy protoberberine chloride] the melting point was 227 to 229 °C.
Molecule `COc1cc2c(cc1OC)-c1cc3ccc(OC)c(OCC(=O)OCc4ccccc4)c3c[n+]1CC2` (as salt: chloride) [4c, 2,3,10-Trimethoxy-9-benzyloxyformylmethylenoxy protoberberine chloride] has a melting point of 196 to 198 °C.
`COc1cc2c(cc1OC)-c1cc3ccc(OC)c(OCC(=O)c4ccc(C)cc4)c3c[n+]1CC2` (as salt: chloride) [4d, 2,3,10-Trimethoxy-9-p-tolylformylmethylenoxy protoberberine chloride] showed a melting point of 228 to 230 °C.
With `COc1cccc(C(=O)COc2c(OC)ccc3cc4[n+](cc23)CCc2cc(OC)c(OC)cc2-4)c1` (as salt: chloride) [4e, 2,3,10-Trimethoxy-9-m-methoxyphenylformylmethylenoxy protoberberine chloride] the melting point was 200 to 202 °C.
Work on `COc1cc2c(cc1OC)-c1cc3ccc(OC)c(OCC(=O)c4ccc(C(F)(F)F)cc4)c3c[n+]1CC2` (as salt: chloride) [4f, 2,3,10-Trimethoxy-9-p-trifloromethylphenylformylmethylenoxy protoberberine chloride] yielded a melting point of 240 to 242 °C.
`COc1cc2c(cc1OC)-c1cc3ccc(OC)c(OC(=O)OCc4ccccc4)c3c[n+]1CC2` (as salt: chloride) [4g, 2,3,10-Trimethoxy-9-benzyloxyformyloxy protoberberine chloride] showed a melting point of 98 to 100 °C.
For `CCOC(=O)COc1cc2c(cc1OC)-c1cc3ccc(OC)c(OC)c3c[n+]1CC2` (as salt: chloride) [5a, 2,9,10-Trimethoxy-3-ethyloxyformylmethylenoxy protoberberine chloride], the melting point was 234 to 236 °C.
In the case of `COc1cc2c(cc1OCC(=O)C(C)(C)C)CC[n+]1cc3c(OC)c(OC)ccc3cc1-2` (as salt: chloride) [5b, 2,9,10-Trimethoxy-3-pivalylmethylenoxy protoberberine chloride], the melting point is reported as 223 to 225 °C.
For `COc1cc2c(cc1OCC(=O)OCc1ccccc1)CC[n+]1cc3c(OC)c(OC)ccc3cc1-2` (as salt: chloride) [5c, 2,9,10-Trimethoxy-3-benzyloxyformylmethylenoxy protoberberine chloride], the melting point was 217 to 219 °C.
`COc1cc2c(cc1OCC(=O)c1ccc(C)cc1)CC[n+]1cc3c(OC)c(OC)ccc3cc1-2` (as salt: chloride) [5d, 2,9,10-Trimethoxy-3-p-methylphenylformylmethylenoxy protoberberine chloride] showed a melting point of 218 to 220 °C.
In the case of `COc1cccc(C(=O)COc2cc3c(cc2OC)-c2cc4ccc(OC)c(OC)c4c[n+]2CC3)c1` [5e, 2,9,10-Trimethoxy-3-m-methoxyphenylformylmethylenoxy protoberberine chloride], the “cytotoxicity, in words” value (Vero cells) is reported as “high cytotoxicity”, the “TC50 (median toxic concentration)” value (Vero cells) is reported as 27.6 µM and the IC50 [1, 5] is reported as 10.4 µM. The “anti-EV71 activity against H strain, in words” value (shortened to “anti-EV71 activity”) ([1]; Vero cells) was “ideal activities compared with BBR”, the IC50 [2, 5] was 8.69 µM and the IC50 [3, 5] was 9.13 µM. For the same molecule, the IC50 [4, 5] was 9.2 µM.
In the case of `COc1cc2c(cc1OCC(=O)c1ccc(C(F)(F)F)cc1)CC[n+]1cc3c(OC)c(OC)ccc3cc1-2` [5f, 2,9,10-Trimethoxy-3-p-trifloromethylphenylformylmethylenoxy protober berine chloride], the “TC50 (median toxic concentration)” value (Vero cells) is reported as 143 µM, the IC50 [1, 5] is reported as 40.4 µM and the “anti-EV71 activity” value ([1]; Vero cells) is reported as “partially or completely lost”. The IC50 [2, 5] was 27 µM, the IC50 [3, 5] was 68.4 µM and the IC50 [4, 5] was 25.4 µM.
In the case of `COc1cc2c(cc1OC(=O)OCc1ccccc1)CC[n+]1cc3c(OC)c(OC)ccc3cc1-2` [5g, 2,9,10-Trimethoxy-3-benzyloxyformyloxy protoberberine chloride], the “TC50 (median toxic concentration)” value (Vero cells) is reported as 265 µM, the IC50 [1, 5] is reported as 143 µM and the “anti-EV71 activity” value ([1]; Vero cells) is reported as “partially or completely lost”. It also gave an IC50 [2, 5] of 51.3 µM, an IC50 [3, 5] of 86.7 µM and an IC50 [4, 5] of 82.8 µM.
For `COc1cc2c(cc1O)CC[n+]1cc3c(OC)c(OC)ccc3cc1-2` [JTH, jatrorrhizine, reference compound], the “TC50 (median toxic concentration)” value (Vero cells) was 255 µM, the IC50 ([1]; EV71, Vero) was > 147 µM and the “anti-EV71 activity” value ([1]; Vero cells) was “decreased activity”. The IC50 ([2]; EV71, Vero) was 147 µM, the IC50 ([3]; EV71, Vero) was 147 µM and the IC50 ([4]; EV71, Vero) was > 147 µM.
For `COc1ccc2cc3[n+](cc2c1O)CCc1cc2c(cc1-3)OCO2` [compound 1], the “TC50 (median toxic concentration)” value (Vero cells) was 85.5 µM, the IC50 [1, 5] was 37 µM and the “anti-EV71 activity” value ([1]; Vero cells) was “decreased activity”. The IC50 [2, 5] was 28.5 µM, the IC50 [3, 5] was 32.6 µM and the IC50 [4, 5] was 35.4 µM.
In the case of `COc1cc2c(cc1OC)-c1cc3ccc(OC)c(O)c3c[n+]1CC2` [compound 3], the “TC50 (median toxic concentration)” value (Vero cells) is reported as 254 µM, the IC50 [1, 5] is reported as 121 µM and the “anti-EV71 activity” value ([1]; Vero cells) is reported as “decreased activity”. The IC50 [2, 5] was 102 µM, the IC50 [3, 5] was 132 µM and the IC50 [4, 5] was 135 µM.

Source: PMC6222558, “Synthesis and Evolution of Berberine Derivatives as a New Class of Antiviral Agents against Enterovirus 71 through the MEK/ERK Pathway and Autophagy” (Molecules : A Journal of Synthetic Chemistry and Natural …, 2018)
